Data on two compounds can be found in publication PMC11963564 (Antimicrobial Agents and Chemotherapy, 2025).

Read-outs that look alike come from different tables or passages of the source.

Assay [1] relates to SARS-CoV-2 Omicron BA.1. Description: microbe, parasite or virus in culture. The assay is classed as cell-based.
Assay [2] relates to SARS-CoV-2 Omicron BA.4. Kind of assay: microbe, parasite or virus in culture. Format: cell-based.
The subject of assay [3] is SARS-CoV-2 Omicron BA.5. Kind of assay: microbe, parasite or virus in culture. Format: cell-based.
In assay [4] the test system is SARS-CoV-2 Omicron CH.1.1. Kind of assay: microbe, parasite or virus in culture. Format: cell-based.
The subject of assay [5] is SARS-CoV-2 Omicron XBB.1.5. Kind of assay: microbe, parasite or virus in culture. Format: cell-based.
Assay [6] relates to SARS-CoV-2 Omicron XBB.1.16. Kind of assay: microbe, parasite or virus in culture. Format: cell-based.
In assay [7] the test system is SARS-CoV-2 Omicron EG.5. Kind of assay: microbe, parasite or virus in culture. Format: cell-based.
In assay [8] the test system is SARS-CoV-2 Omicron JN.1. Kind of assay: microbe, parasite or virus in culture. Format: cell-based.
The test system of assay [9] is SARS-CoV-2 WIV04. The conditions noted are these: cited from earlier work.
Assay [10] concerns SARS-CoV-2 Delta. The conditions noted are these: cited from earlier work.
The mark [11] stands for this setting: Severe acute respiratory syndrome coronavirus 2, Vero C1008, 48 h.
Setting [12] is: Severe acute respiratory syndrome coronavirus 2, Vero C1008, 72 h.

Consider simnotrelvir, for which the IC50 (usually the concentration that gives 50% inhibition) in [1] (read-out: IC50) was determined as 0.148 ± 0.062 µM; in assay [2] (read-out: IC50) it was 0.189 ± 0.006 µM; in assay [3] (read-out: IC50) it was 0.208 ± 0.055 µM; in assay [4] (read-out: IC50), 0.065 ± 0.006 µM; in assay [5] (read-out: IC50), 0.082 ± 0.058 µM; in [6] (read-out: IC50), 0.13 ± 0.02 µM. Moreover, the IC50 in assay [7] (read-out: IC50) is 0.174 ± 0.097 µM; in assay [8] (read-out: IC50) it was 0.124 ± 0.031 µM; in assay [9] it was 0.026 µM; in assay [10], 0.034 µM. The IC90 (commonly the concentration needed for an effect of 90%) came to 0.267 ± 0.082 µM in assay [1] (read-out: IC90); 0.25 ± 0.067 µM in [2] (read-out: IC90); 0.449 ± 0.171 µM in assay [3] (read-out: IC90); 0.099 ± 0.052 µM in assay [4] (read-out: IC90); 0.254 ± 0.111 µM in assay [5] (read-out: IC90); 0.23 ± 0.093 µM in assay [6] (read-out: IC90). Besides, the IC90 is 0.803 ± 0.236 µM in [7] (read-out: IC90) and 0.684 ± 0.188 µM in assay [8] (read-out: IC90).
For `CC(C)(C)[C@H](NC(=O)C(F)(F)F)C(=O)N1C[C@H]2[C@@H]([C@H]1C(=O)N[C@H](C#N)C[C@@H]1CCNC1=O)C2(C)C` [nirmatrelvir, reference compound], the IC50 in assay [1] (setting [11]) turned out to be 0.057 ± 0.012 µM; in assay [2] (setting [11]), 0.072 ± 0.013 µM; in assay [3] (setting [11]) it was 0.09 ± 0.038 µM; in assay [4] (setting [11]) it was 0.026 ± 0.021 µM; in [5] (setting [11]), 0.022 ± 0.014 µM; in [6] (setting [12]), 0.101 ± 0.023 µM. The IC50 in assay [7] (setting [12]) was determined as 0.098 ± 0.026 µM; in assay [8] (setting [12]) it was 0.098 ± 0.027 µM. Also, the IC90 in assay [1] (setting [11]) was found to be 0.142 ± 0.061 µM; in assay [2] (setting [11]), 0.157 ± 0.077 µM; in assay [3] (setting [11]), 0.341 ± 0.14 µM; in [4] (setting [11]), 0.059 ± 0.026 µM; in assay [5] (setting [11]) it was 0.084 ± 0.039 µM; in assay [6] (setting [12]), 0.262 ± 0.14 µM. For the same compound, the IC90 in assay [7] (setting [12]) was found to be 0.617 ± 0.17 µM; in [8] (setting [12]) it was 0.469 ± 0.183 µM.
